What was measured:
[1] = monkey (Chang-Lin 2011); cited from earlier work
[2] = test system: VEGF-induced vascular leakage; conditions: rabbit model (Edelman 2005); cited from earlier work
[3] = ENVRES-PRE-002 ocular pharmacokinetics after intravitreal injection; type: in vivo, New Zealand White rabbits; conditions: rabbit; for Cmax: male, New Zealand White, topical or ocular
Protocol: New Zealand White rabbits, 2 males/group/terminal time point, were administered a single bilateral intravitreal injection of either ENV1105 or OZURDEX and were followed for up 1, 2, 3, and/or 5 months. Animals were examined via slit lamp ophthalmoscopy and indirect ophthalmoscopy.
Ocular tissues, including aqueous humor, vitreous humor, and retina, were processed and analyzed for dexamethasone or FA by two of three methods. Dexamethasone present in ocular tissue samples was quantified by ELISA and HPLC. FA present in ocular tissues was quantified by HPLC and mass spectrometry. Prior to analysis, implants or particles were separated from vitreous humor samples via manual removal or centrifugation. Vitreous humor and aqueous humor tissue samples were analyzed as received or diluted with ACN for LC MS/MS or PBS for ELISA.
Animals were followed for up to 3 months, with ocular matrices (retina/choroid, vitreous humor and aqueous humor) collected to determine ocular pharmacokinetics at Months 2 and 3. Ocular exams were conducted on Days 2, 3, 6, 10, weekly through Day 28, and then biweekly through Month 3 to determine tolerability. A summary of the study designed is provided below in Table 10.

Row | Cmax ([3]; 0.27 mg, aqueous humor, Group 4 (ENV-1R-0119-7-5, 6 implants, 270 μg/eye)) [ng/mL] | Cmax ([3]; 0.27 mg, retina/choroid, Group 4 (ENV-1R-0119-7-5, 6 implants, 270 μg/eye)) [ng/g] | Cmax ([3]; 0.27 mg, vitreous humor, Group 4 (ENV-1R-0119-7-5, 6 implants, 270 μg/eye)) [ng/mL] | day on which concentration peaked ([3]; Group 5 (ENV-1R-0119-33-7), retina/choroid and vitreous humor) [days] | Cmax ([3]; 0.0407 mg, retina/choroid, Group 5 (ENV-1R-0119-33-7, 40.7 μg/eye)) [ng/g] | Cmax ([3]; 0.0407 mg, vitreous humor, Group 5 (ENV-1R-0119-33-7, 40.7 μg/eye)) [ng/g] | Compound | time dexamethasone was detected in the retina and vitreous humor [1] [months] | efficacy in VEGF-induced vascular leakage [2]
1 | 5.9 | 28100 | 3080 | – | – | – | C[C@@H]1C[C@H]2[C@@H]3CCC4=CC(=O)C=C[C@]4(C)[C@@]3(F)[C@@H](O)C[C@]2(C)[C@@]1(O)C(=O)CO [Dexamethasone, (8S,9R,10S,11S,13S,14S,16R,17R)-9-Fluoro-11,17-dihydroxy-17-(2-hydroxyacetyl)-10,13,16-trimethyl-6,7,8,9,10,11,12,13,14,15,16,17-dodecahydro-3H-cyclopenta[a]phenanthren-3-one] | 6 | effective
2 | – | – | – | 84 | 3950 | 298 | CC1(C)O[C@@H]2C[C@H]3[C@@H]4C[C@H](F)C5=CC(=O)C=C[C@]5(C)[C@@]4(F)[C@@H](O)C[C@]3(C)[C@]2(C(=O)CO)O1 [fluocinolone acetonide, (1S,2S,4R,8S,9S,11S,12R,13S,19S)-12,19-difluoro-11-hydroxy-8-(2-hydroxyacetyl)-6,6,9,13-tetramethyl-5,7-dioxapentacyclo[10.8.0.0^2,9.0^4.8.0 ^13,18]icosa-14,17-dien-16-one] | – | –

— US11116776B2, “Intravitreal drug delivery systems for the treatment of ocular conditions” (Aerie Pharmaceuticals, Inc., priority 2015, dated 2021)
